Data published in PubChem BioAssay AID1963834 (Molecular Pharmacology Branch, DTP, NCI, 2024).

Tested on: 873145-292-R-J1-PDC complex spheroid viability
Assay: Anticancer human tumor 873145-292-R-J1-PDC patient-derived renal clear cell carcinoma cell line growth inhibition [POLQ]
Settings: for IC50: curve of first compound; for viability, T/C: stronger effect = lower value
Method in brief: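 Patient-derived tumour cells were co-cultured with HUVEC and mesenchymal stem cells as multicellular spheroids at 37 °C. They were treated with POLQ inhibitors (novobiocin, ART-558, RP6685) alone or combined with other agents. Top concentrations were at or near clinical Cmax (otherwise 10 microM; SN-38 at 1 microM), decreasing in half-log steps.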

[1] = second compound 0.0316 µM, first compound 0.0316 µM
[2] = second compound 0.0316 µM, first compound 0.1 µM
[3] = second compound 0.0316 µM, first compound 0.316 µM
[4] = second compound 0.0316 µM, first compound 1 µM
[5] = second compound 0.0316 µM, first compound 3.16 µM
[6] = second compound 0.0316 µM, first compound 10 µM
[7] = second compound 0.1 µM, first compound 0.0316 µM
[8] = second compound 0.1 µM, first compound 0.1 µM
[9] = second compound 0.1 µM, first compound 0.316 µM
[10] = second compound 0.1 µM, first compound 1 µM
[11] = second compound 0.1 µM, first compound 3.16 µM
[12] = second compound 0.1 µM, first compound 10 µM
[13] = second compound 0.316 µM, first compound 0.0316 µM
[14] = second compound 0.316 µM, first compound 0.1 µM
[15] = second compound 0.316 µM, first compound 0.316 µM
[16] = second compound 0.316 µM, first compound 1 µM
[17] = second compound 0.316 µM, first compound 3.16 µM
[18] = second compound 0.316 µM, first compound 10 µM
[19] = second compound 1 µM, first compound 0.0316 µM
[20] = second compound 1 µM, first compound 0.1 µM
[21] = second compound 1 µM, first compound 0.316 µM
[22] = second compound 1 µM, first compound 1 µM
[23] = second compound 1 µM, first compound 3.16 µM
[24] = second compound 1 µM, first compound 10 µM
[25] = second compound 3.16 µM, first compound 0.0316 µM
[26] = second compound 3.16 µM, first compound 0.1 µM
[27] = second compound 3.16 µM, first compound 0.316 µM
[28] = second compound 3.16 µM, first compound 1 µM
[29] = second compound 3.16 µM, first compound 3.16 µM
[30] = second compound 3.16 µM, first compound 10 µM
[31] = second compound 10 µM, first compound 0.0316 µM
[32] = second compound 10 µM, first compound 0.1 µM
[33] = second compound 10 µM, first compound 0.316 µM
[34] = second compound 10 µM, first compound 1 µM
[35] = second compound 10 µM, first compound 3.16 µM
[36] = second compound 10 µM, first compound 10 µM
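Further: spheroids exposed to compounds for 7 days before viability readout.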
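Wherever viability, T/C is given: luminescence signal used as surrogate for viable cell content; 100% = DMSO vehicle control viability.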

CC1COCCN1c1cc(C2(S(C)(=N)=O)CC2)nc(-c2ccnc3[nH]ccc23)n1 (stereo unspecified) + COC1C(OC(N)=O)C(O)C(Oc2ccc3c(O)c(NC(=O)c4ccc(O)c(CC=C(C)C)c4)c(=O)oc3c2C)OC1(C)C
IC50 (second compound 0.0316 µM): > 10 µM
IC50 (second compound 0.1 µM): > 10 µM
IC50 (second compound 0.316 µM): > 10 µM
IC50 (second compound 1 µM): > 10 µM
IC50 (second compound 3.16 µM): > 10 µM
IC50 (second compound 10 µM): > 10 µM
viability, T/C [1]: 98.8%
viability, T/C [2]: 101%
viability, T/C [3]: 88.6%
viability, T/C [4]: 88.3%
viability, T/C [5]: 86.4%
viability, T/C [6]: 67.8%
viability, T/C [7]: 105%
viability, T/C [8]: 94.7%
viability, T/C [9]: 90.8%
viability, T/C [10]: 90.1%
viability, T/C [11]: 81.3%
viability, T/C [12]: 58.5%
viability, T/C [13]: 102%
viability, T/C [14]: 95.6%
viability, T/C [15]: 90%
viability, T/C [16]: 82.7%
viability, T/C [17]: 80.3%
viability, T/C [18]: 55.8%
viability, T/C [19]: 100%
viability, T/C [20]: 90.2%
viability, T/C [21]: 96.7%
viability, T/C [22]: 95.6%
viability, T/C [23]: 85.6%
viability, T/C [24]: 61.5%
viability, T/C [25]: 100%
viability, T/C [26]: 90.1%
viability, T/C [27]: 103%
viability, T/C [28]: 82.7%
viability, T/C [29]: 82.6%
viability, T/C [30]: 62.2%
viability, T/C [31]: 95.1%
viability, T/C [32]: 92.9%
viability, T/C [33]: 95.6%
viability, T/C [34]: 81.1%
viability, T/C [35]: 74.8%
viability, T/C [36]: 64.6%

CCCS(=O)(=O)Nc1ccc(F)c(C(=O)c2c[nH]c3ncc(-c4ccc(Cl)cc4)cc23)c1F + COC1C(OC(N)=O)C(O)C(Oc2ccc3c(O)c(NC(=O)c4ccc(O)c(CC=C(C)C)c4)c(=O)oc3c2C)OC1(C)C
IC50 (second compound 0.0316 µM): > 10 µM
IC50 (second compound 0.1 µM): > 10 µM
IC50 (second compound 0.316 µM): > 10 µM
IC50 (second compound 1 µM): > 10 µM
IC50 (second compound 3.16 µM): > 10 µM
IC50 (second compound 10 µM): > 10 µM
viability, T/C [1]: 118%
viability, T/C [2]: 98.8%
viability, T/C [3]: 99.4%
viability, T/C [4]: 107%
viability, T/C [5]: 90.7%
viability, T/C [6]: 62.5%
viability, T/C [7]: 113%
viability, T/C [8]: 108%
viability, T/C [9]: 108%
viability, T/C [10]: 112%
viability, T/C [11]: 89.8%
viability, T/C [12]: 57.7%
viability, T/C [13]: 104%
viability, T/C [14]: 92.5%
viability, T/C [15]: 98.9%
viability, T/C [16]: 99.8%
viability, T/C [17]: 94.9%
viability, T/C [18]: 57.3%
viability, T/C [19]: 96.9%
viability, T/C [20]: 111%
viability, T/C [21]: 102%
viability, T/C [22]: 107%
viability, T/C [23]: 94.2%
viability, T/C [24]: 60.9%
viability, T/C [25]: 102%
viability, T/C [26]: 103%
viability, T/C [27]: 105%
viability, T/C [28]: 91.2%
viability, T/C [29]: 89.5%
viability, T/C [30]: 53.2%
viability, T/C [31]: 89.3%
viability, T/C [32]: 93.3%
viability, T/C [33]: 98.8%
viability, T/C [34]: 106%
viability, T/C [35]: 93.2%
viability, T/C [36]: 64.7%

Cn1ncnc1[C@H]1c2n[nH]c(=O)c3cc(F)cc(c23)N[C@@H]1c1ccc(F)cc1 + COC1C(OC(N)=O)C(O)C(Oc2ccc3c(O)c(NC(=O)c4ccc(O)c(CC=C(C)C)c4)c(=O)oc3c2C)OC1(C)C
IC50 (second compound 0.0316 µM): > 0.1 µM
IC50 (second compound 0.1 µM): > 0.1 µM
IC50 (second compound 0.316 µM): > 0.1 µM
IC50 (second compound 1 µM): > 0.1 µM
IC50 (second compound 3.16 µM): > 0.1 µM
IC50 (second compound 10 µM): > 0.1 µM
viability, T/C (second compound 0.0316 µM, first compound 0.000316 µM): 98.5%
viability, T/C (second compound 0.0316 µM, first compound 0.001 µM): 102%
viability, T/C (second compound 0.0316 µM, first compound 0.00316 µM): 87.2%
viability, T/C (second compound 0.0316 µM, first compound 0.01 µM): 94.8%
viability, T/C [1]: 102%
viability, T/C [2]: 95.9%
viability, T/C (second compound 0.1 µM, first compound 0.000316 µM): 101%
viability, T/C (second compound 0.1 µM, first compound 0.001 µM): 102%
viability, T/C (second compound 0.1 µM, first compound 0.00316 µM): 96.2%
viability, T/C (second compound 0.1 µM, first compound 0.01 µM): 85.9%
viability, T/C [7]: 99.5%
viability, T/C [8]: 84.2%
viability, T/C (second compound 0.316 µM, first compound 0.000316 µM): 102%
viability, T/C (second compound 0.316 µM, first compound 0.001 µM): 98.7%
viability, T/C (second compound 0.316 µM, first compound 0.00316 µM): 102%
viability, T/C (second compound 0.316 µM, first compound 0.01 µM): 93.1%
viability, T/C [13]: 94.8%
viability, T/C [14]: 91.6%
viability, T/C (second compound 1 µM, first compound 0.000316 µM): 103%
viability, T/C (second compound 1 µM, first compound 0.001 µM): 99.3%
viability, T/C (second compound 1 µM, first compound 0.00316 µM): 95.6%
viability, T/C (second compound 1 µM, first compound 0.01 µM): 103%
viability, T/C [19]: 94.5%
viability, T/C [20]: 89.8%
viability, T/C (second compound 3.16 µM, first compound 0.000316 µM): 101%
viability, T/C (second compound 3.16 µM, first compound 0.001 µM): 97.7%
viability, T/C (second compound 3.16 µM, first compound 0.00316 µM): 108%
viability, T/C (second compound 3.16 µM, first compound 0.01 µM): 89.3%
viability, T/C [25]: 98.8%
viability, T/C [26]: 99.3%
viability, T/C (second compound 10 µM, first compound 0.000316 µM): 98.9%
viability, T/C (second compound 10 µM, first compound 0.001 µM): 95%
viability, T/C (second compound 10 µM, first compound 0.00316 µM): 104%
viability, T/C (second compound 10 µM, first compound 0.01 µM): 90.9%
viability, T/C [31]: 95.2%
viability, T/C [32]: 94.9%
